The values that follow come from US10329309B2, “3-(3H-imidazo[4,5-B]pyridin-2-yl)-1H-pyrazolo[4,3-B]pyridines and therapeutic uses thereof” (Samumed, LLC, priority 2015, dated 2019).

Usually inhibition stands for the percentage by which the read-out fell short of the control. Usually pEC50 stands for −log10 of the EC50, conventionally taken in molar units. Lower therefore signals a high EC50.

pEC50: −log10 of the molar value.

Assay type in all cases: cell-based
For test [1], the system named is Wnt activity (Sp5-Luc reporter, SW480 colon carcinoma cells). Nature of the test: Screening assay for Wnt activity: Sp5-Luc reporter gene assay in SW480 cells. The note with it: Homo sapiens; for inhibition at 10 µM: 10 μM compound, read-out: percent inhibition at 10 μM (given for EC50 of >10 μM); for pEC50: overnight incubation, 10-point dose-response from 10 μM. An excerpt:
The screening assay for Wnt activity is described as follows. Reporter cell lines can be generated by stably transducing cancer cell lines (e.g., colon cancer) or primary cells (e.g., IEC-6 intestinal cells) with a lentiviral construct that includes a Wnt-responsive promoter driving expression of the firefly luciferase gene.
SW480 colon carcinoma cells were transduced with a lentiviral vector expressing luciferase with a human Sp5 promoter consisting of a sequence of eight TCF/LEF binding sites. SW480 cells stably expressing the Sp5-Luc reporter gene and a hygromycin resistance gene were selected by treatment with 150 μg/mL of hygromycin for 7 days. These stably transduced SW480 cells were expanded in cell culture and used for all further screening activities. Each compound was dissolved in DMSO as a 10 mM stock and used to prepare compound source plates. Serial dilution (1:3, 10-point dose-response curves starting from 10 μM) and compound transfer was performed using the ECHO 550 (Labcyte, Sunnyvale, Calif.) into 384-well white solid bottom assay plates (Greiner Bio-One) with appropriate DMSO backfill for a final DMSO concentration of 0.1%. For Sp5-Luc reporter gene assays, the cells were plated at 4,000 cells/well in 384-well plates with medium containing 1% fetal bovine serum and incubated overnight at 37° C. and 5% CO2. Following incubation, 20 μl of BrightGlo luminescence reagent (Promega) was added to each well of the 384-well assay plates. The plates were placed on an orbital shaker for 2 min and then luminescence was quantified using the Envision (Perkin Elmer) plate reader. Readings were normalized to DMSO only treated cells, and normalized activities were utilized for EC50 calculations using the dose-response log (inhibitor) vs. response -variable slope (four parameters) nonlinear regression feature available in GraphPad Prism 5.0 (or Dotmatics). For EC50 of >10 μM, the percent inhibition at 10 μM is provided.
In general terms: Reporter assays use an easily measured gene product as a stand-in for the process of interest.

The test system of a further test is SW480 colon cancer cells. In words: Cell viability assay (CellTiter-Blue), four days. The note with it: Homo sapiens, 96 h; for pEC50: CellTiter-Blue cell viability; for inhibition at 10 µM: read-out: percent inhibition at 10 μM (given for EC50 of >10 μM). As for the experimental part:
Representative compounds were screened using the following assay procedure to assess the effect on cell viability as described below.
Each compound was dissolved in DMSO as a 10 mM stock and used to prepare compound source plates. Serial dilution (1:3, 8-point dose-response curves from 10 μM to 0.0045 μM) and compound transfer was performed using the ECHO 550 (Labcyte, Sunnyvale, Calif.) into 96-well clear bottom, black-walled plates (Corning-Costar).
Approximately 2×10^3 SW480 colon cancer cells were seeded into each well and allowed to incubate in the presence or absence of compound for four days at 37° C./5% CO2. Eight replicates of DMSO-treated cells served as controls and cells treated with compound were performed in duplicate.
After incubation, 20 μL of CellTiter-Blue (Promega) was added to each well allowed to incubate for approximately 3 hours. This reagent was a buffered solution which contains resazurin, metabolically active cells were able to reduce rezarurin (blue) into resorufin (pink) which was highly fluorescent. This measured fluorescence was used as a readout for cell viability.
After incubation, the plates were read at Ex 560 nm Em 590 nm (Cytation 3, BioTek). Dose-response curves were generated and EC50 concentration values were calculated using non-linear regression curve fit in the GraphPad Prism (San Diego, Calif.) or Dotmatics' Studies Software (Bishops Stortford, UK). For EC50 of >10 μM, the percent inhibition at 10 μM is provided.
For orientation: Alamar Blue is a resazurin reagent that responds to reducing activity.

The next test concerns IL-6 (THP-1 cells). Nature of the test: Inhibition of IL-6 in LPS-stimulated THP-1 monocytes (HTRF). To be noted: Homo sapiens; for pEC50: LPS 500 ng/mL, IL-6 by HTRF; for inhibition at 10 µM: LPS stimulated, IL-6, at 10 μM, read-out: percent inhibition at 10 μM (given for EC50 of >10 μM). As for the experimental part: Human monocyte cell line (THP-1 cells; Catalog # TIB-202, ATCC, Manassas, Va.) were cultured in Roswell Park Memorial Institute (RPMI) 1640 Medium (Catalog #21870-100, Buffalo, N.Y.) with 1% L-glutamine, 1% HEPES, 1% Sodium Pyruvate, 2% Sodium Bicarbonate supplemented with 100 units/mL penicillin, 50 μg/mL streptomycin, 2-mercaptoethanol (0.05 mM) [basal medium] and 10% fetal bovine serum (Catalog #16140089, Life Technologies, Carlsbad, Calif.) at 37° C. and 5% CO2.
THP-1 cells were cultured in basal media with 1% FBS for 24 hours before the start of the assay. Each compound was dissolved in DMSO as a 10 mM stock and used to prepare compound source plates. Serial dilution (1:3, 10-point dose-response curves starting from 10 μM) and compound transfer was performed using the ECHO 550 (Labcyte, Sunnyvale, Calif.) into 384-well white low volume assay plates (Greiner Bio-One) with appropriate DMSO backfill for a final DMSO concentration of 0.1%. THP-1 cells were plated at 5000 cells/well in the 384-well plates and incubated at 37° C. for 2 h. 500 ng/mL of LPS was added after 2 hours and cells were incubated for another 22 hours at 37° C. Plates were spun in a centrifuge for 1 minute at […] and a mixture of anti-IL6 XL665, and anti-IL6 Cryptate diluted in reconstitution buffer (Cisbio Inc.) was added to each well. Following incubation for 3 hrs at room temperature, Homogeneous Time-Resolved Fluorescence (HTRF) was measured using the Envision (Perkin Elmer) at 665 nm and […]. The ratio of fluorescence at 665 nm to 620 nm was used as a readout for IL6 quantification. All samples were processed in duplicate. Readings were normalized to DMSO treated cells and normalized activities were utilized for EC50 calculations using the dose-response log (inhibitor) vs. response -variable slope (four parameters) nonlinear regression feature available in GraphPad Prism 5.0 (or Dotmatics). For EC50 of >10 μM, the percent inhibition at 10 μM is provided.

On to `CCC(=O)Nc1cncc(-c2ccc3[nH]nc(-c4nc5c(-c6ccsc6)ccnc5[nH]4)c3n2)c1` [Compound 281, N-(5-(3-(7-(thiophen-3-yl)-3H-imidazo[4,5-b]pyridin-2-yl)-1H-pyrazolo[4,3-b]pyridin-5-yl)pyridin-3-yl)propionamide], for which the inhibition at 10 µM in test [1] came out at 28.3%; with SW480 colon cancer cells it was 24.2%; in the test on IL-6 (THP-1 cells) it was 25%. Moreover, the pEC50 (in test [1]; in the test on SW480 colon cancer cells; in the test on IL-6 (THP-1 cells)) was under 5.00 each time.

As for `Cn1cc(-c2ccc3[nH]nc(-c4nc5c(-c6cccc(F)c6)ccnc5[nH]4)c3n2)cn1` [Compound 508, 3-(7-(3-fluorophenyl)-3H-imidazo[4,5-b]pyridin-2-yl)-5-(1-methyl-1H-pyrazol-4-yl)-1H-pyrazolo[4,3-b]pyridine], the inhibition at 10 µM turned out to be 41% in test [1], 0% with SW480 colon cancer cells and 15.5% in the test with IL-6 (THP-1 cells). In addition, the negative-log EC50 (pEC50) (in test [1]; in the test on SW480 colon cancer cells; in the test on IL-6 (THP-1 cells)) was under 5.00 each time.

For `CCNCc1cncc(-c2ccc3[nH]nc(-c4nc5c(-c6cc(F)cc(NCCN(C)C)c6)ccnc5[nH]4)c3n2)c1` [Compound 454, N^1-(3-(2-(5-(5-((ethylamino)methyl)pyridin-3-yl)-1H-pyrazolo[4,3-b]pyridin-3-yl)-3H-imidazo[4,5-b]pyridin-7-yl)-5-fluorophenyl)-N^2,N^2-dimethylethane-1,2-diamine], the inhibition at 10 µM in test [1] was 43.4%; in the test with SW480 colon cancer cells, 42.2%; in the test with IL-6 (THP-1 cells), 36.4%. Besides, the pEC50 (in test [1]; with SW480 colon cancer cells; with IL-6 (THP-1 cells)) was under 5.00 each time.

In the case of `O=C(CC1CCNCC1)Nc1cncc(-c2ccc3[nH]nc(-c4nc5c(-c6ccccn6)ccnc5[nH]4)c3n2)c1` [Compound 593, 2-(Piperidin-4-yl)-N-(5-(3-(7-(pyridin-2-yl)-3H-imidazo[4,5-b]pyridin-2-yl)-1H-pyrazolo[4,3-b]pyridin-5-yl)pyridin-3-yl)acetamide], the inhibition at 10 µM in test [1] is 29.3%; in the test with SW480 colon cancer cells, 16.7%; with IL-6 (THP-1 cells), 41.8%. The pEC50 (in test [1]; in the test with SW480 colon cancer cells; in the test on IL-6 (THP-1 cells)) was under 5.00 throughout.

Consider `O=C(CC1CCNCC1)Nc1cncc(-c2ccc3[nH]nc(-c4nc5c(-c6ccsc6)ccnc5[nH]4)c3n2)c1` [Compound 673, 2-(Piperidin-4-yl)-N-(5-(3-(7-(thiophen-3-yl)-3H-imidazo[4,5-b]pyridin-2-yl)-1H-pyrazolo[4,3-b]pyridin-5-yl)pyridin-3-yl)acetamide], for which the values for the inhibition at 10 µM (in test [1]; with SW480 colon cancer cells; with IL-6 (THP-1 cells)) were 26.9%, 0.6% and 35.9%, respectively. In addition, the pEC50 (in test [1]; with SW480 colon cancer cells; with IL-6 (THP-1 cells)) was under 5.00 each time.

For the compound `c1cc(-c2ccoc2)c2nc(-c3n[nH]c4ccc(-c5cncc(OCCN6CCCC6)c5)nc34)[nH]c2n1` [Compound 690, 3-(7-(Furan-3-yl)-3H-imidazo[4,5-b]pyridin-2-yl)-5-(5-(2-(pyrrolidin-1-yl)ethoxy)pyridin-3-yl)-1H-pyrazolo[4,3-b]pyridine], the inhibition at 10 µM stood at 37.6% in test [1], 26.6% in the test with SW480 colon cancer cells and 42.9% with IL-6 (THP-1 cells). In addition, the pEC50 (in test [1]; with SW480 colon cancer cells; in the test with IL-6 (THP-1 cells)) was under 5.00 in each case.

As for `CN(C)CCNc1cc(F)cc(-c2ccnc3[nH]c(-c4n[nH]c5ccc(-c6cnccn6)nc45)nc23)c1` [Compound 792, N^1-(3-Fluoro-5-(2-(5-(pyrazin-2-yl)-1H-pyrazolo[4,3-b]pyridin-3-yl)-3H-imidazo[4,5-b]pyridin-7-yl)phenyl)-N^2,N^2-dimethylethane-1,2-diamine], the pEC50 in test [1] was 5.41; with SW480 colon cancer cells, 5.36; with IL-6 (THP-1 cells), under 5.00. The inhibition at 10 µM with IL-6 (THP-1 cells) was 23.3%.

With `CCC(=O)Nc1cncc(-c2ccc3[nH]nc(-c4nc5c(N6CCCCC6)ccnc5[nH]4)c3n2)c1` [Compound 169, N-(5-(3-(7-(piperidin-1-yl)-3H-imidazo[4,5-b]pyridin-2-yl)-1H-pyrazolo[4,3-b]pyridin-5-yl)pyridin-3-yl)propionamide], the inhibition at 10 µM in test [1] was 44.2%; with IL-6 (THP-1 cells) it was 12.7%. The pEC50 was under 5.00 in test [1], 5.33 with SW480 colon cancer cells and under 5.00 with IL-6 (THP-1 cells).

For `Cc1cn(-c2ccnc3[nH]c(-c4n[nH]c5ccc(-c6cncc(NC(=O)C(C)(C)C)c6)nc45)nc23)cn1` [Compound 204, N-(5-(3-(7-(4-methyl-1H-imidazol-1-yl)-3H-imidazo[4,5-b]pyridin-2-yl)-1H-pyrazolo[4,3-b]pyridin-5-yl)pyridin-3-yl)pivalamide], the inhibition at 10 µM in test [1] was 12.2%; in the test with SW480 colon cancer cells, 0%; in the test on IL-6 (THP-1 cells), 36.3%. The pEC50 (in test [1]; with SW480 colon cancer cells; in the test with IL-6 (THP-1 cells)) was under 5.00 in each case.

With `Fc1cccc(-c2ccnc3[nH]c(-c4n[nH]c5ccc(C6CCNCC6)nc45)nc23)c1` [Compound 505, 3-(7-(3-fluorophenyl)-3H-imidazo[4,5-b]pyridin-2-yl)-5-(piperidin-4-yl)-1H-pyrazolo[4,3-b]pyridine], the inhibition at 10 µM in test [1] came out at 16%. Besides, the pEC50 is under 5.00 in test [1], 5.08 in the test with SW480 colon cancer cells and 5.46 in the test on IL-6 (THP-1 cells).

Consider `CN1CCN(c2ccnc3[nH]c(-c4n[nH]c5ccc(-c6cncc(NC(=O)C7CCCC7)c6)nc45)nc23)CC1` [Compound 246, N-(5-(3-(7-(4-Methylpiperazin-1-yl)-3H-imidazo[4,5-b]pyridin-2-yl)-1H-pyrazolo[4,3-b]pyridin-5-yl)pyridin-3-yl)cyclopentanecarboxamide], for which the inhibition at 10 µM in test [1] was determined as 4.2%; in the test with SW480 colon cancer cells, 0%; in the test on IL-6 (THP-1 cells), 15.7%. The pEC50 (in test [1]; in the test on SW480 colon cancer cells; in the test with IL-6 (THP-1 cells)) was under 5.00 in each case.
